{
  "source": "ChEMBL document CHEMBL5614422",
  "about": "“Design, synthesis and biological evaluation of N-salicyloyl tryptamine derivatives as multifunctional neuroprotectants for the treatment of ischemic stroke” (Eur J Med Chem, 2024)",
  "key": {"BV-2": {"tested_on": "BV-2", "test": "Anti-inflammatory activity against OGD/R and erastin induced ferroptosis in mouse BV-2 cells assessed as inhibition of TNF-alpha production preincubated for 6 hrs followed by OGD addition and measured after 1 hr by ELISA method", "assay_type": "functional, cell-based", "details": "dose 10-40 µM, time 7.0 hrs"}, "HT-22 [1]": {"tested_on": "HT-22", "test": "Cytoprotective activity against OGD/R induced mouse HT-22 cells assessed as increase in cell viability at 10 uM measured after 24 hrs by MTT assay", "assay_type": "functional, cell-based"}, "[2]": {"test": "Antioxidant activity assessed as free radical scavenging activity at 40 to 80 uM incubated in dark for 30 mins under shaking condition by DPPH assay", "assay_type": "functional", "details": "dose 40-80 µM"}, "HT-22 [3]": {"tested_on": "HT-22", "test": "Antioxidant activity against OGD/R induced oxidative stress in mouse HT-22 cells assessed as decrease in MDA content by absorbance based automatic microplate reader analysis", "assay_type": "functional, cell-based"}, "HT-22 [4]": {"tested_on": "HT-22", "test": "Anti-apoptotic activity in OGD/R mouse HT-22 cells assessed as reduction in proportion of apoptic cells by annexin V-FITC and PI staining based flow cytometry analysis", "assay_type": "functional, cell-based", "details": "dose 1-10 µM"}, "HT-22 [5]": {"tested_on": "HT-22", "test": "Induction of morphological changes in OGD/R induced mouse HT-22 cells assessed as attenuation of cell shrinkage by microscopic based analysis", "assay_type": "functional"}, "HT-22 [6]": {"tested_on": "HT-22", "test": "Induction of morphological changes in OGD/R induced mouse HT-22 cells assessed as attenuation of cell rounding by microscopic based analysis", "assay_type": "functional"}, "[7]": {"target": "T1, Nuclear factor erythroid 2-related factor 2 (Mus musculus) (UniProt Q60795)", "T1 sequence (whole entry)": "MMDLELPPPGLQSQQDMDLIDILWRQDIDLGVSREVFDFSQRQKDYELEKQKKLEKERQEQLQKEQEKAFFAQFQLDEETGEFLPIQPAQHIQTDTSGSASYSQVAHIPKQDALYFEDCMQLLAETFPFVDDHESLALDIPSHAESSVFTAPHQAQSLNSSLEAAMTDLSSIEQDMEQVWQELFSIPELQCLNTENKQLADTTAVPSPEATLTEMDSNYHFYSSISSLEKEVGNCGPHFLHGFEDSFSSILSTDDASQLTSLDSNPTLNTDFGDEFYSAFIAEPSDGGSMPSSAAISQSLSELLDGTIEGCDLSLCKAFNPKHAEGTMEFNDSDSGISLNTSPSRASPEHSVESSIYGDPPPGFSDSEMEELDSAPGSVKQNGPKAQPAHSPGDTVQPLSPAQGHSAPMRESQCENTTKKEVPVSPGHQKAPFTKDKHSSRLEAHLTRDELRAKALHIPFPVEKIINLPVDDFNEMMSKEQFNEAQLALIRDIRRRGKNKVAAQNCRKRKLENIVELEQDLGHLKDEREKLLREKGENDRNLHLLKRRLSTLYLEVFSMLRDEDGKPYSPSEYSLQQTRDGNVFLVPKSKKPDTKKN", "test": "Activation of Nrf2 in OGD/R induced mouse HT-22 cells assessed as induction of Nrf2 nuclear translocation at 1 to 10 uM by immunofluorescence analysis", "assay_type": "cell-based", "details": "filed as activator, dose 1-10 µM"}, "HT-22 [8]": {"tested_on": "HT-22", "test": "Upregulation of HO-1 protein level in OGD/R induced mouse HT-22 cells at 1 to 10 uM by Western blot analysis", "assay_type": "functional, cell-based", "details": "dose 1-10 µM"}, "HT-22 [9]": {"tested_on": "HT-22", "test": "Upregulation of GPX4 protein level in OGD/R induced mouse HT-22 cells at 1 to 10 uM by Western blot analysis", "assay_type": "functional, cell-based", "details": "dose 1-10 µM"}, "HT-22 [10]": {"tested_on": "HT-22", "test": "Upregulation of Nrf2 protein level in OGD/R induced mouse HT-22 cells at 1 to 10 uM by Western blot analysis", "assay_type": "functional, cell-based", "details": "dose 1-10 µM"}, "HT-22 [11]": {"tested_on": "HT-22", "test": "Upregulation of Nrf2 mRNA level in OGD/R induced mouse HT-22 cells at 1 to 10 uM by qRT-PCR analysis", "assay_type": "functional, cell-based", "details": "dose 1-10 µM"}, "HT-22 [12]": {"tested_on": "HT-22", "test": "Cytoprotective activity against OGD/R induced mouse HT-22 cells assessed as increase in cell viability at 10 uM measured after 24 hrs in presence of ML385 by MTT assay", "assay_type": "functional, cell-based"}, "HT-22 [13]": {"tested_on": "HT-22", "test": "Cytoprotective activity against OGD/R induced mouse HT-22 cells assessed as inhibition of intracellular LDH release at 10 uM in presence of ML385", "assay_type": "functional, cell-based"}, "HT-22 [14]": {"tested_on": "HT-22", "test": "Antioxidant activity against OGD/R induced oxidative stress in mouse HT-22 cells assessed as reduction in ROS release level at 10 uM in presence of ML385by DCFH-DA staining based flow cytometry analysis", "assay_type": "functional, cell-based"}, "HT-22 [15]": {"tested_on": "HT-22", "test": "Anti-ferroptotic activity against OGD/R induced mouse HT-22 cells decrease as in Fe2+ level at 10 uM by cell ferrous calorimetry analysis", "assay_type": "functional, cell-based"}, "HT-22 [16]": {"tested_on": "HT-22", "test": "Anti-ferroptotic activity against OGD/R induced mouse HT-22 cells decrease in MDA level at 10 uM in presence of ML385", "assay_type": "functional, cell-based"}, "HT-22 [17]": {"tested_on": "HT-22", "test": "Upregulation of HO-1 protein level in OGD/R induced mouse HT-22 cells at 10 uM in presence of ML385 by Western blot analysis", "assay_type": "functional, cell-based"}, "HT-22 [18]": {"tested_on": "HT-22", "test": "Upregulation of Nrf2 protein level in OGD/R induced mouse HT-22 cells at 10 uM in presence of ML385 by Western blot analysis", "assay_type": "functional, cell-based"}, "Mus musculus [19]": {"tested_on": "Mus musculus", "test": "Neuroprotective activity against MCAO-R induced 12 hrs fasted male C57BL/6J mouse model assessed as reduction in infarct volume administered as ip once a day for 7 days by TTC staining based analysis", "assay_type": "functional, organism-based", "details": "time 7.0 day"}, "Mus musculus [20]": {"tested_on": "Mus musculus", "test": "Neuroprotective activity against MCAO-R induced 12 hrs fasted male C57BL/6J mouse model assessed as improvement in brain tissue structure at 10 to 50 mg/kg, ip administered once a day for 7 days by H and E staining based analysis", "assay_type": "functional, organism-based", "details": "dose 10-50 mg/kg, time 7.0 day"}, "Mus musculus [21]": {"tested_on": "Mus musculus", "test": "Neuroprotective activity against MCAO-R induced 12 hrs fasted male C57BL/6J mouse model assessed as alleviation of neurological impairment at 10 to 50 mg/kg, ip administered once a day for 7 days by H and E staining based analysis", "assay_type": "functional, organism-based", "details": "dose 10-50 mg/kg, time 7.0 day"}, "Mus musculus [22]": {"tested_on": "Mus musculus", "test": "Neuroprotective activity against MCAO-R induced 12 hrs fasted male C57BL/6J mouse model assessed as decrease in MDA level in cerebral ischemic tissue at 10 to 50 mg/kg, ip administered once a day for 7 days", "assay_type": "functional, organism-based", "details": "dose 10-50 mg/kg, time 7.0 day"}, "Mus musculus [23]": {"tested_on": "Mus musculus", "test": "Neuroprotective activity against MCAO-R induced 12 hrs fasted male C57BL/6J mouse model assessed as decrease in LDH level in cerebral ischemic tissue at 10 to 50 mg/kg, ip administered once a day for 7 days", "assay_type": "functional, organism-based", "details": "dose 10-50 mg/kg, time 7.0 day"}, "Mus musculus [24]": {"species": "Mus musculus", "test": "Antiinflammatory activity in MCAO-R induced 12 hrs fasted male C57BL/6J mouse model assessed as reduction in IL-6 level by ELISA method", "assay_type": "functional, organism-based"}, "Mus musculus [25]": {"tested_on": "Mus musculus", "test": "Neuroprotective activity against MCAO-R induced 12 hrs fasted male C57BL/6J mouse model assessed as decrease in S100 expression in DG by measuring decrease in fluorescence intensity administered once a day as ip dose for 7 days by immunofluorescence method", "assay_type": "functional, organism-based", "details": "dose 10-50 mg/kg, time 7.0 day"}, "Mus musculus [26]": {"tested_on": "Mus musculus", "test": "Neuroprotective activity against MCAO-R induced 12 hrs fasted male C57BL/6J mouse model assessed as decrease in S100 expression in CA1 by measuring decrease in fluorescence intensity administered once a day as ip dose for 7 days by immunofluorescence method", "assay_type": "functional, organism-based", "details": "dose 10-50 mg/kg, time 7.0 day"}, "Mus musculus [27]": {"tested_on": "Mus musculus", "test": "In vivo activation of Nrf2 pathway in MCAO-R induced 12 hrs fasted male C57BL/6J mouse model assessed as increase in NQO1 expression level at 10 to 50 mg/kg, ip by Western blot analysis", "assay_type": "functional, organism-based", "details": "dose 10-50 mg/kg"}},
  "note": "The source made the active and inactive calls. The rule behind the calls is not given here.",
  "data": [
    {"smiles": "Cc1ccc(C(=O)NCCc2c[nH]c3ccc(N(C)C)cc23)c(O)c1", "values": [
      {"measurement": "Activity", "setting": "BV-2", "result": "Dose-Dependent Effect"},
      {"measurement": "Activity", "setting": "HT-22 [1]", "result": "Active"},
      {"measurement": "Activity", "setting": "[2]", "result": "Active"},
      {"measurement": "Activity", "setting": "HT-22 [3]", "result": "Active"},
      {"measurement": "Activity", "setting": "HT-22 [4]", "result": "Dose-Dependent Effect"},
      {"measurement": "Activity", "setting": "HT-22 [5]", "result": "Active"},
      {"measurement": "Activity", "setting": "HT-22 [6]", "result": "Active"},
      {"measurement": "Activity", "setting": "[7]", "result": "Active"},
      {"measurement": "Activity", "setting": "HT-22 [8]", "result": "Active"},
      {"measurement": "Activity", "setting": "HT-22 [9]", "result": "Active"},
      {"measurement": "Activity", "setting": "HT-22 [10]", "result": "Active"},
      {"measurement": "Activity", "setting": "HT-22 [11]", "result": "Active"},
      {"measurement": "Activity", "setting": "HT-22 [12]", "result": "inactive"},
      {"measurement": "Activity", "setting": "HT-22 [13]", "result": "inactive"},
      {"measurement": "Activity", "setting": "HT-22 [14]", "result": "inactive"},
      {"measurement": "Activity", "setting": "HT-22 [15]", "result": "Active"},
      {"measurement": "Activity", "setting": "HT-22 [16]", "result": "inactive"},
      {"measurement": "Activity", "setting": "HT-22 [17]", "result": "inactive"},
      {"measurement": "Activity", "setting": "HT-22 [18]", "result": "inactive"},
      {"measurement": "Activity", "setting": "Mus musculus [19]", "result": "Dose-Dependent Effect"},
      {"measurement": "Activity", "setting": "Mus musculus [20]", "result": "Active"},
      {"measurement": "Activity", "setting": "Mus musculus [21]", "result": "Active"},
      {"measurement": "Activity", "setting": "Mus musculus [22]", "result": "Active"},
      {"measurement": "Activity", "setting": "Mus musculus [23]", "result": "Active"},
      {"measurement": "Activity", "setting": "Mus musculus [24]", "result": "Active"},
      {"measurement": "Activity", "setting": "Mus musculus [25]", "result": "Dose-Dependent Effect"},
      {"measurement": "Activity", "setting": "Mus musculus [26]", "result": "Dose-Dependent Effect"},
      {"measurement": "Activity", "setting": "Mus musculus [27]", "result": "Active"}
    ]}
  ]
}
